# EPA's ToxRefDB 2
# Columns and labels:
# rabbit [1] = details: Sub-acute repeat dose toxicity; Oral; Gavage/Intubation; dose end: 4 day; group: systemic; systemic / hematology / erythrocyte (rbc) count differential / erythrocyte (rbc) + systemic / hematology / hematocrit (hct) / hematocrit (…
# primate [2] = details: Sub-acute repeat dose toxicity, Oral, Gavage/Intubation, dose end: 28 day, group: systemic
# rat [3] = details: Sub-acute repeat dose toxicity; Oral; Gavage/Intubation; dose end: 10 day; group: systemic; systemic / hematology / erythrocyte (rbc) count differential / erythrocyte (rbc) + systemic / hematology / hematocrit (hct) / hematocrit (…
# rat [4] = details: Sub-acute repeat dose toxicity, Oral, Gavage/Intubation, dose end: 34 day, group: systemic
# primate [5] = details: Sub-acute repeat dose toxicity; Oral; Gavage/Intubation; dose end: 10 day; group: systemic; systemic / clinical chemistry / [other] / [other] + systemic / clinical chemistry / apolipoprotein a1 / apolipoprotein a1 + systemic / …
# dog [6] = details: Subchronic oral toxicity in nonrodent, beagle, Gavage/Intubation, dose end: 91 day, group: systemic
# rat [7] = details: Sub-acute repeat dose toxicity, sprague dawley, Oral, Gavage/Intubation, dose end: 14 day, group: systemic
# rat [8] = details: Subchronic oral toxicity in rodents, sprague dawley, Gavage/Intubation, dose end: 91 day, group: systemic
# dog [9] = details: Sub-acute repeat dose toxicity, beagle, Oral, Gavage/Intubation, dose end: 15 day, group: systemic
# rat [10] = details: Sub-acute repeat dose toxicity, sprague dawley, Oral, Gavage/Intubation, dose end: 12 day, group: systemic
# rabbit [11] = details: Sub-acute repeat dose toxicity; new zealand white; Oral; Gavage/Intubation; dose end: 4 day; group: systemic; systemic / in life observation / clinical signs / erythema + systemic / in life observation / clinical signs / tachypnea
# rat [12] = details: Sub-acute repeat dose toxicity, sprague dawley, Oral, Feed, dose end: 10 day, group: systemic
# mouse = details: Sub-acute repeat dose toxicity; Oral; Feed; dose end: 10 day; group: systemic; systemic / in life observation / body weight / body weight + systemic / in life observation / food consumption / food consumption
# [13] = systemic / in life observation / clinical signs / pulse/pressure + systemic / clinical chemistry / albumin / albumin + systemic / hematology…
# [14] = systemic / in life observation / clinical signs / pulse/pressure + systemic / in life observation / clinical signs / arrhythmia + systemic…
# [15] = systemic / clinical chemistry / [other] / [other] + systemic / clinical chemistry / globulins / globulins + systemic / clinical chemistry / …
# [16] = systemic / in life observation / body weight / body weight + systemic / clinical chemistry / [other] / [other] + systemic / clinical …
# [17] = systemic / clinical chemistry / alkaline phosphatase (alp/alk) / alkaline phosphatase (alp/alk) + systemic / clinical chemistry / bilirubin…
# [18] = systemic / in life observation / clinical signs / emesis
# [19] = systemic / pathology microscopic / blood vessel / arteritis + systemic / in life observation / body weight / body weight
# [20] = systemic / organ weight / heart / absolute + systemic / pathology microscopic / thyroid gland / hypertrophy + systemic / in life observation…
# [21] = systemic / in life observation / clinical signs / arrhythmia + systemic / in life observation / clinical signs / emesis
# [22] = systemic / in life observation / clinical signs / arrhythmia + systemic / in life observation / clinical signs / emesis + systemic / in life…
# [23] = systemic / in life observation / clinical signs / salivation
# [24] = systemic / in life observation / clinical signs / salivation + systemic / in life observation / food consumption / food consumption + …
# [25] = systemic / in life observation / body weight / body weight + systemic / in life observation / clinical signs / drooping eyelids (ptosis) + …
# [26] = systemic / in life observation / body weight / body weight + systemic / in life observation / clinical signs / lacrimation or red-colored …
smiles,measurement,setting,value
CC(C)c1nnc2ccc(-c3ocnc3-c3cc(F)ccc3F)cn12,LEL,rabbit [1],40 mg/kg/day
same,LOAEL,rabbit [1],> 80 mg/kg/day
same,NEL,rabbit [1],20 mg/kg/day
same,NOAEL,rabbit [1],≥ 80 mg/kg/day
same,LEL,primate [2]; [13],30 mg/kg/day
same,NEL,primate [2]; [13],< 30 mg/kg/day
same,LOAEL,primate [2]; [14],> 500 mg/kg/day
same,NOAEL,primate [2]; [14],≥ 500 mg/kg/day
same,LOAEL,rat [3],> 2000 mg/kg/day
same,NEL,rat [3],< 250 mg/kg/day
same,NOAEL,rat [3],≥ 2000 mg/kg/day
same,LEL,rat [4]; [15],100 mg/kg/day
same,NEL,rat [4]; [15],< 100 mg/kg/day
same,LOAEL,rat [4]; [16],> 2000 mg/kg/day
same,NOAEL,rat [4]; [16],≥ 2000 mg/kg/day
same,LEL,primate [5],1000 mg/kg/day
same,LOAEL,primate [5],> 1000 mg/kg/day
same,NEL,primate [5],300 mg/kg/day
same,NOAEL,primate [5],≥ 1000 mg/kg/day
CCCOc1ccc(S(=O)(=O)N2CCN(CC)CC2)cc1-c1nc2c(CC)n(Cc3ccccn3)nc2c(=O)[nH]1,LOAEL,dog [6]; [17],> 100 mg/kg/day
same,NOAEL,dog [6]; [17],≥ 100 mg/kg/day
same,LEL,dog [6]; [18],10 mg/kg/day
same,NEL,dog [6]; [18],< 10 mg/kg/day
same,NEL,rat [7]; systemic / pathology microscopic / blood vessel / arteritis,45 mg/kg/day
same,LEL,rat [7]; [19],200 mg/kg/day
same,LOAEL,rat [7]; [19],> 200 mg/kg/day
same,NOAEL,rat [7]; [19],≥ 200 mg/kg/day
same,NEL,rat [8]; systemic / organ weight / heart / absolute + systemic / pathology microscopic / thyroid gland / hypertrophy,25 mg/kg/day
same,LEL,rat [8]; [20],100 mg/kg/day
same,LOAEL,rat [8]; [20],> 400 mg/kg/day
same,NOAEL,rat [8]; [20],≥ 400 mg/kg/day
same,LEL,dog [9]; [21],15 mg/kg/day
same,NEL,dog [9]; [21],< 15 mg/kg/day
same,LOAEL,dog [9]; [22],> 150 mg/kg/day
same,NOAEL,dog [9]; [22],≥ 150 mg/kg/day
same,LEL,rat [10]; [23],100 mg/kg/day
same,NEL,rat [10]; [23],< 100 mg/kg/day
same,LOAEL,rat [10]; [24],> 400 mg/kg/day
same,NOAEL,rat [10]; [24],≥ 400 mg/kg/day
same,LEL,rabbit [11],400 mg/kg/day
same,LOAEL,rabbit [11],> 400 mg/kg/day
same,NEL,rabbit [11],< 400 mg/kg/day
same,NOAEL,rabbit [11],≥ 400 mg/kg/day
same,LOAEL,rat [12]; [25],> 2000 mg/kg/day
same,NOAEL,rat [12]; [25],≥ 2000 mg/kg/day
same,LEL,rat [12]; [26],500 mg/kg/day
same,NEL,rat [12]; [26],< 500 mg/kg/day
same,LEL,mouse,2000 mg/kg/day
same,LOAEL,mouse,> 2000 mg/kg/day
same,NOAEL,mouse,≥ 2000 mg/kg/day
